Entries after “also recorded” stand apart in the source; their conditions may differ. Read-outs that look alike come from different tables or passages of the source.

Holding throughout (assay type): cell-based, human
Experiment [1] has as its system CCRF-CEM leukemia cells. Kind of experiment: XTT cell proliferation assay, CCRF-CEM. The conditions noted are these: read-out: IC50 (cell growth inhibition). As to the method: (§1) Cell growth inhibition IC50 (μM) by compounds of Formula I was tested on various cancer cell types by XTT cell proliferation assay. The growth inhibitory effects of the compounds of Formula I as shown below for the melanoma cell line SK-MEL-2 were reproducible by Lorus Therapeutics Inc.

Experiment [2] has as its system HT-29 cells. Kind of experiment: Cell cycle analysis by flow cytometry, HT-29. The conditions noted are these: HT-29, 24 hours. As to the method: To test the ability of compounds of Formula I to block cell cycle progression, compound 3 was incubated with human colon carcinoma HT-29 or human leukemia CCRF-CEM cells to determine alterations in populations of cells at different stages of the cell cycle using flow cytometric analysis. HT-29 cells were maintained as described in Example 13. CCRF-CEM cells used in this example and subsequent examples were maintained as suspension cells in a growth medium; RPMI-1640 medium (Sigma, St. Louis, Mo.), supplemented with 2 mM L-glutamine (Gibco, Grand Island, N.Y.), 10% fetal bovine serum (FBS) (Multicell, WISENT Inc. St-Bruno, QC), antibiotic-antimycotic (Multicell), at 37° C. in a 5% CO2-humidified incubator.
The assay was carried out as follows. For HT-29 cells, 1×10^6 cells in 10 mL volume of the growth medium were seeded in 100 mm dishes. For CCRF-CEM cells, 3×10^6 cells in 10 mL volume of the growth medium were seeded in 25 cm^2 flask. […] The fluorescence of stained cells was analyzed using FACScan flow cytometer and the Cell Quest program (BD Biosciences, San Jose, Calif.). Data were evaluated using Modfit software (Verity software House, Topsham, Me.). Values were determined by gate analysis of flow cytometric plots. […]
Cell cycle analysis was assessed by flow cytometry in HT-29 cells treated with compound 3 as shown in FIG. 27A and compound 7 as shown in FIG. 27B.

Experiment [3] concerns DU-145 prostate cancer cells. Briefly: XTT cell proliferation assay, DU-145. The conditions noted are these: read-out: IC50 (cell growth inhibition). The procedure: as §1
Experiment [4] relates to KLF4. Kind of experiment: KLF4 gene expression by RT-PCR, MDA-MB-231. The conditions noted are these: MDA-MB-231, relative to vehicle control as 1. An excerpt: (§2) Gene expression levels of KLF4, induced by compounds of Formula I, were also examined on various cancer cell types by RT-PCR. Fold changes in KLF4 in compound-treated cells were expressed relative to KLF4 expression in vehicle control-treated cells of respective cell type as “1”. […] Additionally, xenografts of MDA-MB-435 implanted into mammary fat pads of female SCID mice have shown immunohistochemical staining consistent with melanocytic origin (Ellison G, Klinowska T, Westwood R F, Docter E, French T, Fox J C. (2002) Mol Pathol. 55(5): 294-299). The breast cancer cell line MDA-MB-435 may be expected to function differently than the other breast cancer cell lines.

Experiment [5] relates to KLF4. Briefly: KLF4 gene expression by RT-PCR, MOLT-4. The conditions noted are these: MOLT-4, relative to vehicle control as 1.
Description: as §2

In experiment [6] the test system is KLF4. Kind of experiment: KLF4 gene expression by RT-PCR, MDA-MB-435. The conditions noted are these: MDA-MB-435, relative to vehicle control as 1.
Description: as §2

Experiment [7] relates to KLF4. Briefly: KLF4 gene expression by RT-PCR, H-460. The conditions noted are these: for KLF2, KLF4 and KLF6 gene expression: H-460, 2.5 μM; for KLF4 (gene fold increase): H-460, relative to vehicle control as 1.
Description: as §2
Expressions of KLF2, 4 and 6 genes in H-460 cells, treated with vehicle control or 2.5 μM compound 3 or compound 7, were measured by RT-PCR. Gene expression was presented relative to respective gene expression in vehicle control-treated group as “1”.

Experiment [8] concerns PC-3 prostate cancer cells. Kind of experiment: XTT cell proliferation assay, PC-3. The conditions noted are these: read-out: IC50 (cell growth inhibition). The procedure:
as §1

Experiment [9] deals with KLF4. Briefly: KLF4 gene expression by RT-PCR, SK-MEL-2. The conditions noted are these: SK-MEL-2, relative to vehicle control as 1.
Description: as §2

Turning to `Cc1[nH]c2ccccc2c1-c1nc2c3cccnc3c3ncccc3c2[nH]1` [Compound 3], the IC50 in [1] (Homo sapiens) was 0.42 µM; in [3] (Homo sapiens), 0.35 µM; in [8] (Homo sapiens), 0.3 µM. For the same compound, the cell cycle progression entry in experiment [2] was “induced a block in cell cycle progression at the G1 phase; also recorded: Cell cycle arrest at G1/S phase was observed”. For the same compound, the “KLF4 (gene fold increase)” value in experiment [4] is 1.52 fold; in experiment [5] it was 44.79 fold; in experiment [6], 9.09 fold; in [7], 3.4 fold; in [9], 2.38 fold. The “KLF2, KLF4 and KLF6 gene expression” value in [7] is recorded as “increased KLF4 as most significantly changed gene”.
For `CCc1cccc2c(-c3nc4c5cccnc5c5ncccc5c4[nH]3)c(C(C)(C)C)[nH]c12` [Compound 64], the results for the IC50 in [1], in experiment [3] and in [8] were 0.25 µM, 0.3 µM and 0.46 µM, respectively. For the same compound, the “KLF4 (gene fold increase)” value is recorded as 2.06 fold in experiment [4]; 265.03 fold in experiment [5]; 7.59 fold in experiment [6]; 1.64 fold in experiment [7]; 5.35 fold in experiment [9].
Take `Cc1[nH]c2ccc(F)cc2c1-c1nc2c3cccnc3c3ncccc3c2[nH]1` [Compound 7]: the IC50 in experiment [1] (Homo sapiens) was determined as 0.4 µM; in [3] (Homo sapiens), 0.22 µM; in [8] (Homo sapiens), 0.21 µM. In addition, in experiment [2], the cell cycle progression entry is on record as “Cell cycle arrest at G1/S phase was observed”. The “KLF4 (gene fold increase)” value in experiment [4] was found to be 1.6 fold; in experiment [5], 173.6 fold; in experiment [6] it was 11.71 fold; in experiment [7], 2.1 fold; in experiment [9] it was 3.32 fold. For the same compound, in [7], the “KLF2, KLF4 and KLF6 gene expression” value was “increased KLF4 as most significantly changed gene”.

The values are drawn from patent publication US8148392B2, “2-indolyl imidazo [4,5-d] phenanthroline derivatives and their use in the treatment of cancer” (Lorus Therapeutics Inc., priority 2005, dated 2012).
